Results: patent US9110051B2, “Pharmacologic method of lowering cholesterol production” (The University of Chicago, priority 2004, dated 2015)

Tests used:
Format in all cases: cell-based
red blood cells = experiment: Lysis of red blood cells by saponin; settings: saponin 0-8 μg/well, 30 minutes, compared to solvent control, FIG. 6
Procedure: Red blood cells were pre-treated with either octanol, diglyceride, ceramide, or solvent before incubation with varying concentrations of saponin. The decrease in optical absorbance at 500 nm indicates increasing lysis.
Red cell membranes are treated with octanol, diglyceride, ceramide, or solvent before incubation with different concentrations of saponin (0-8 μg/well) for 30 minutes. Optical absorbance at OD500 is measured. Decreased optical absorbance indicates increasing lysis by saponin.

red cell membranes = experiment: Oxidation of red cell membrane cholesterol by cholesterol oxidase; settings: 0-12 μmolar analog pretreatment; cholesterol oxidase 1 h, FIG. 5
Procedure: The red cell membranes were pretreated with ceramide or diglycerides and then treated with cholesterol oxidase for a hour. An increase in oxidation following cholesterol oxidase treatment signifies an increase in active cellular cholesterol.
Red cell membrane lysis is measured using cholesterol oxidase as set forth in the examples above. Prior to lysis, red cell membranes are treated with either differing amounts of a ceramide analog (0-12 μmolar) or differing amounts of a diglyceride analog (0-12 μmolar). The increased level of plasma membrane cholesterol activity is detected by susceptibility to cholesterol oxidase and measured as a % of oxidation.

human fibroblasts = experiment: Effect of octanol on fibroblast cholesterol; settings: 24 h in growth medium with octanol, FIG. 4
Procedure: FIG. 4 depicts the effect of octanol on fibroblast cholesterol. Replicate flasks of fibroblasts were incubated for 24 h in growth medium with octanol. The cells were then assayed for cholesterol and protein.
The cultured cells described in Example 3 will be plated in microtiter wells and incubated with test compounds at 37° C. for two days to allow a full metabolic response. The drug will then be washed away, amphotericin B added to the wells and cell lysis followed from the leakage of potassium ions or another indicator, as above. Resistance to amphotericin B lysis will indicate that the objective has been achieved: the reduction of plasma membrane cholesterol in response to the test compound. Other polyene antibiotics (e.g., nystatin and filipin) will be tested in place of amphotericin B in order to discern their effects. In contrast to the screens described in the previous examples, which are used to identify compounds that raise the activity of membrane cholesterol, the present assay will measure the long-term effect of modulating cholesterol levels. Agents that increase plasma membrane cholesterol activity, when used as drugs, will signal cells to reduce their cholesterol accretion homeostatically. […] This can be detected by their increased resistance to amphotericin B, which normally lyses these cells.

[1] = tested on: human fibroblast cell line; experiment: Fibroblast plasma membrane cholesterol susceptibility to cholesterol oxidase; settings: adding 0.1-1.0 mM octanol
Procedure: A human fibroblast cell line is grown in bulk culture and seeded into microtiter wells the day before experimentation. The fibroblast cells from the fibroblast cell line are rinsed and treated with octanol plus cholesterol oxidase as in Example 2. The increased level of plasma membrane cholesterol activity is detected in two ways. First, plasma membrane cholesterol activity is detected by susceptibility to cholesterol oxidase. […] Cell lysis caused by cholesterol oxidation can also be determined by measuring increased cell permeability using a plate fluorescence reader and the impermeable indicator of potassium ions, PBFI, or another indicator system.

human red blood cells = experiment: Screen using red blood cell lysis by amphotericin B; settings: for effect on amphotericin B lysis of red cells (activity of membrane cholesterol): cholesterol lowered with cyclodextrin, turbidity or by eye, FIGS. 1 and 2; for red blood cell lysis caused by amphotericin B (visual screen): cholesterol-modified cells, octanol 0.2 μmol/well or lysophosphatidylcholine 1 μg/well, amphotericin B 20 μg/well, 1 h, room temperature
Procedure: Human red blood cells were either freshly drawn or taken from an outdated blood bank source and then washed and suspended in physiological buffer. The cholesterol content of washed human red blood cells was varied with methyl-β-cyclodextrin/methyl-β-cyclodextrin-cholesterol complexes. The cells were distributed into a 96-well plate and incubated for a few minutes with saline (O), 0.2 μmol/well octanol (V) or 1 μg/well lysophosphatidylcholine (□). Amphotericin B (20 μg/well) was added and the plate incubated for 1 hour at room temperature. […] In FIG. 1, turbidity (signifying intact cells) was determined in a plate-reading photometer as optical density (OD) at 500 nm; loss of OD signifies lysis. In FIG. 1, results are plotted versus total human red blood cell cholesterol, assessed with Amplex™ Red, Molecular Probes, Eugene, Oreg. The cholesterol content of unmodified red blood cells was 0.55 μg/μl cells, close to the threshold of the control curve.
Cells with modified cholesterol were placed in the conical wells of a 96-well plate, briefly pre-incubated with the two test compounds, and then treated with amphotericin B (20 μg/well) for one hour at room temperature. The plate was photographed after the cells settled. Row A: saline control. Cells depleted of cholesterol (wells 1-6) resisted lysis (seen as a loss of the central button). Row B: n-octanol (0.2 μmol/well). […] Row C: Lysophosphatidylcholine (1 μg/well).
Human red cells (freshly drawn or from an outdated blood bank source) were washed and suspended in physiological buffer. […] The cholesterol modified cells were placed in the wells of a microtiter plate and incubated for a few minutes at room temperature with octanol and lysophosphatidylcholine, which can be replaced with a battery of drugs (individually or in mixtures). Amphotericin B was then added and the plate incubated at room temperature for an hour. Cell lysis was scored by reading light scattering in a plate-reading photometer (FIG. 1) or, more simply, by letting the unlysed cells settle for an hour in conical wells and then assessing hemolysis by eye (FIG. 2).
Polyene antibiotics such as amphotericin B are known to promote the disruption of cholesterol containing membranes. However, this action depends critically on the cholesterol level in the membrane (see the control curves, O - - - O, in FIGS. 1 and 2). The critical cholesterol content for lysis is close to the physiological level in human fibroblast plasma membranes, for the same reason that ER cholesterol responds dramatically near the physiological content of the plasma membrane. […]

Compound	lysis of red blood cells by saponin (OD500) (red blood cells)	susceptibility of red cell cholesterol to oxidation by cholesterol oxidase (% of oxidation) (red cell membranes)	fibroblast cell cholesterol after prolonged culture (human fibroblasts)	oxidation of fibroblast cholesterol by cholesterol oxidase [1]	effect on amphotericin B lysis of red cells (activity of membrane cholesterol) (human red blood cells)	red blood cell lysis caused by amphotericin B (visual screen) (human red blood cells)
ceramide	increase lysis of red blood cells at lower concentrations of saponin	increase the susceptibility of red cell cholesterol to oxidation				
CCCCCCCCO [octanol, n-octanol]	increase lysis of red blood cells at lower concentrations of saponin		resulted in cholesterol reduction	readily oxidized	favors amphotericin B lysis	Even cholesterol depleted cells were lysed by amphotericin B
lysophosphatidylcholine					has the opposite effect	Even enriched cells resisted amphotericin B lysis
